How the values were obtained:
[1] = test system: PRMT5-dependent Symmetric Di-methyl Arginine signal in HCT116 homozygous MTAP knockout cells; assay: SYM11 In-Cell Western, HCT116 MTAP knockout; type: cell-based; settings: Homo sapiens, HCT-116, 96 h, HCT116 homozygous MTAP knockout cells, 4 days of treatment, SYM11/DRAQ5 ratio; read-out: In-cell-Western (SYM11) HCT116 MTAP_KO IC50
PRMT5/MEP50 complex = PRMT5/MEP50 complex (Homo sapiens (Human), UniProt O14744); assay: PRMT5:MEP50 HotSpot Assay (full-length histone H2A substrate, plus and minus MTA); type: biochemical; settings: IC50 + 2 μM MTA, in the presence of 2 μM MTA
Method in brief: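 Radiometric filter-binding format using recombinant full-length histone H2A as substrate. After the reaction was stopped, mixtures went onto filter paper and tritiated H2A was quantified by scintillation counting.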

[2] = test system: PRMT5-dependent Symmetric Di-methyl Arginine signal in HCT116 parental cells; assay: SYM11 In-Cell Western, HCT116 parental; type: cell-based; settings: Homo sapiens, HCT-116, 96 h, 4 days of treatment, SYM11/DRAQ5 ratio
Method in brief: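 HCT116 parental cells (2,000/well, McCoy's 5A with 10% FBS) dosed with PRMT5 inhibitors for four days at 37° C. Fixed in paraformaldehyde and methanol, then stained with SYM11 antibody and DRAQ5.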

HCT116 parental cells = assay: Proliferation assay (CellTiter-Glo, 10 days of treatment), HCT116 parental; type: cell-based; settings: Homo sapiens, HCT-116, 240 h
Method in brief: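 250 cells seeded in McCoy's 5A with 10% FBS, then given a dose response of PRMT5 inhibitor at 37 °C, 5% CO2 for five days. Cells were split 1:10 on Day 6 into fresh medium with the same compound concentration for 5 more days. Viability read on Day 11 by CellTiter-Glo; IC50 after 10 days of treatment.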

[3] = test system: HCT116 homozygous MTAP knockout cells; assay: Proliferation assay (CellTiter-Glo, 10 days of treatment), HCT116 MTAP knockout; type: cell-based; settings: Homo sapiens, HCT-116, 240 h, read-out: Proliferation HCT116MTAP_KO IC50
Method in brief: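 Cells (250/well) seeded in McCoy's 5A with 10% FBS, then treated the next day with a PRMT5 inhibitor dose response at 37 °C, 5% CO2. On day 6 they were split 1:10 into fresh medium with the same compound concentration. CellTiter-Glo viability was read on day 11 and IC50 taken after 10 days of treatment.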

PRMT5/MEP50 complex, sequence (O14744 2-637): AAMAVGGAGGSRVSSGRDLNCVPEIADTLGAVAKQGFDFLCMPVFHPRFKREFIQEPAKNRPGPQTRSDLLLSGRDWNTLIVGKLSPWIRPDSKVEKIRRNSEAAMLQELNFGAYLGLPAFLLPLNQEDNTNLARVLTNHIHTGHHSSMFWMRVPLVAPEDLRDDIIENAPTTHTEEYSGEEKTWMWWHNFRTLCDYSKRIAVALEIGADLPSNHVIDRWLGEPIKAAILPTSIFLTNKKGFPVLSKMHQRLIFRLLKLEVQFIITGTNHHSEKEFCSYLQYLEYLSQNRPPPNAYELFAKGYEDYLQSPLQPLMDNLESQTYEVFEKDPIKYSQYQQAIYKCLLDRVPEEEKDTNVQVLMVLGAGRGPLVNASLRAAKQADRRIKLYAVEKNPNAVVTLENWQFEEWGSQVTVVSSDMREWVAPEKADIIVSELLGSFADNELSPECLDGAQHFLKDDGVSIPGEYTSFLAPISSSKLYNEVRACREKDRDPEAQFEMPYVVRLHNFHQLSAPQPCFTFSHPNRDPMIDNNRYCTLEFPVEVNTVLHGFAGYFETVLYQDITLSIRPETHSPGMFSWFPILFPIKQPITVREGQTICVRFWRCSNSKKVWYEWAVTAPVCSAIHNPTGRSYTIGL
PRMT5/MEP50 complex, sequence (Q9BQA1 2-342 partner): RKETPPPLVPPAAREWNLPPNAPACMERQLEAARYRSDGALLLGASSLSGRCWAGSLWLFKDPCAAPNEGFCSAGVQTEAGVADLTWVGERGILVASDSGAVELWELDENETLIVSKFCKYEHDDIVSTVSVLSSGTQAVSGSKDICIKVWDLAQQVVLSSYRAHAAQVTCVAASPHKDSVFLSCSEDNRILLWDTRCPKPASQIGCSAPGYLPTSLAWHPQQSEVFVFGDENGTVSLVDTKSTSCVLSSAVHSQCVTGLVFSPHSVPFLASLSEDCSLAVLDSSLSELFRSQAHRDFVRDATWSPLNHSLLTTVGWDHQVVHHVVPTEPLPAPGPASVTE

Structure (SMILES) | IC50 [1] | IC50 (PRMT5/MEP50 complex) | IC50 [2] | IC50 (HCT116 parental cells) | IC50 [3]
COc1cc(Cl)c(C#N)c(-c2c(-c3ccc4c(=O)[nH]nc(CN)c4c3)cnn2C)c1 [Example 4-169, 2-(4-(4-(aminomethyl)-1-oxo-1,2-dihydrophthalazin-6-yl)-1-methyl-1H-pyrazol-5-yl)-6-chloro-4-methoxybenzonitrile] | 35.5 nM | 1350 nM | 4520 nM | > 10 µM | 294 nM
Cc1cc(Cl)cc(-c2c(-c3ccc4c(=O)[nH]nc(CN)c4c3)cnn2C)c1C#N [Example 4-180, 2-(4-(4-(aminomethyl)-1-oxo-1,2-dihydrophthalazin-6-yl)-1-methyl-1H-pyrazol-5-yl)-4-chloro-6-methylbenzonitrile] | 31.9 nM | 597 nM | 1410 nM | 0.121 µM | 7110 nM
Cn1ncc(-c2ccc3c(=O)[nH]nc(CN)c3c2)c1-c1ccc2ccccc2n1 [Example 4-182, 4-(aminomethyl)-6-(1-methyl-5-(quinolin-2-yl)-1H-pyrazol-4-yl)phthalazin-1(2H)-one] | 58 nM | 1420 nM | > 1000 nM | 7.25 µM | 572 nM
Cn1ncc(-c2ccc3c(=O)[nH]nc(CN)c3c2)c1-c1ccc2c(Cl)cccc2c1C#N [Example 4-184, 2-(4-(4-(aminomethyl)-1-oxo-1,2-dihydrophthalazin-6-yl)-1-methyl-1H-pyrazol-5-yl)-5-chloro-1-naphthonitrile] | 4 nM | 127 nM | > 10000 nM | 9.4 µM | 107 nM
Cn1ncc(-c2ccc3c(=O)[nH]nc(CN)c3c2)c1-c1cnn(Cc2ccccc2)c1Cl [Example 4-187, 4-(aminomethyl)-6-(1′-benzyl-5′-chloro-2-methyl-1′H,2H-[3,4′-bipyrazol]-4-yl)phthalazin-1(2H)-one] | 7 nM | 239 nM | 1000 nM | 1.36 µM | 1900 nM
Cn1ncc(-c2ccc3c(=O)[nH]nc(CN)c3c2)c1-c1cc(Cl)cc(OC2CC2)c1C#N [Example 4-188, 2-(4-(4-(aminomethyl)-1-oxo-1,2-dihydrophthalazin-6-yl)-1-methyl-1H-pyrazol-5-yl)-4-chloro-6-cyclopropoxybenzonitrile] | 4 nM | 99 nM | > 10000 nM | 0.904 µM | 39 nM
CCCc1cccc(-c2c(-c3ccc4c(=O)[nH]nc(CN)c4c3)cnn2C)c1C#N [Example 4-189, 2-(4-(4-(aminomethyl)-1-oxo-1,2-dihydrophthalazin-6-yl)-1-methyl-1H-pyrazol-5-yl)-6-propylbenzonitrile] | 31 nM | 656 nM | 1830 nM | > 10 µM | 234 nM
Cn1ncc(-c2ccc3c(=O)[nH]nc(CN)c3c2)c1-c1ccc2cccnc2c1C#N [Example 4-192, 7-(4-(4-(aminomethyl)-1-oxo-1,2-dihydrophthalazin-6-yl)-1-methyl-1H-pyrazol-5-yl)quinoline-8-carbonitrile] | 256 nM | 890 nM | > 10000 nM | > 10 µM | 2140 nM
Cn1ncc(-c2ccc3c(=O)[nH]nc(CN)c3c2)c1-c1ccc2c(c1C#N)CCCO2 [Example 4-196, 6-(4-(4-(aminomethyl)-1-oxo-1,2-dihydrophthalazin-6-yl)-1-methyl-1H-pyrazol-5-yl)chromane-5-carbonitrile] | 11 nM | 653 nM | 1320 nM | 9.29 µM | 154 nM
COc1cnc2ccc(-c3c(-c4ccc5c(=O)[nH]nc(CN)c5c4)cnn3C)c(C#N)c2c1 [Example 4-197, 6-(4-(4-(aminomethyl)-1-oxo-1,2-dihydrophthalazin-6-yl)-1-methyl-1H-pyrazol-5-yl)-3-methoxyquinoline-5-carbonitrile] | 25 nM | 719 nM | > 1000 nM | 8.57 µM | 256 nM
Cn1ncc(-c2ccc3c(=O)[nH]nc(CN)c3c2)c1-c1cccc(C2CC2)c1C#N [Example 4-198, 2-(4-(4-(aminomethyl)-1-oxo-1,2-dihydrophthalazin-6-yl)-1-methyl-1H-pyrazol-5-yl)-6-cyclopropylbenzonitrile] | 21 nM | 111 nM | 1270 nM | 7.34 µM | 136 nM
CCc1cc(Cl)cc(-c2c(-c3ccc4c(=O)[nH]nc(CN)c4c3)cnn2C)c1C#N [Example 4-200, 2-(4-(4-(aminomethyl)-1-oxo-1,2-dihydrophthalazin-6-yl)-1-methyl-1H-pyrazol-5-yl)-4-chloro-6-ethylbenzonitrile] | 32 nM | 156 nM | 1750 nM | 4.3 µM | 71 nM
CCc1cc(OC)cc(-c2c(-c3ccc4c(=O)[nH]nc(CN)c4c3)cnn2C)c1C#N [Example 4-202, 2-(4-(4-(aminomethyl)-1-oxo-1,2-dihydrophthalazin-6-yl)-1-methyl-1H-pyrazol-5-yl)-6-ethyl-4-methoxybenzonitrile] | 8 nM | 255 nM | > 1000 nM | 2.37 µM | 232 nM
COc1cc(-c2c(-c3ccc4c(=O)[nH]nc(CN)c4c3)cnn2C)c(C#N)c2ccccc12 [Example 4-205, 2-(4-(4-(aminomethyl)-1-oxo-1,2-dihydrophthalazin-6-yl)-1-methyl-1H-pyrazol-5-yl)-4-methoxy-1-naphthonitrile] | 6 nM | 23 nM | > 1000 nM | 0.683 µM | 59 nM
Cn1ncc(-c2ccc3c(=O)[nH]nc(CN)c3c2)c1-c1cc(Cl)c2ccccc2c1C#N [Example 4-206, 2-(4-(4-(aminomethyl)-1-oxo-1,2-dihydrophthalazin-6-yl)-1-methyl-1H-pyrazol-5-yl)-4-chloro-1-naphthonitrile] | 3 nM | 35 nM | > 1000 nM | 1 µM | 34 nM
Cn1ncc(-c2ccc3c(=O)[nH]nc(CN)c3c2)c1-c1sc2ccccc2c1C#N [Example 4-242, 2-(4-(4-(aminomethyl)-1-oxo-1,2-dihydrophthalazin-6-yl)-1-methyl-1H-pyrazol-5-yl)benzo[b]thiophene-3-carbonitrile] | 2 nM | 102 nM | > 1000 nM | 4.99 µM | 44 nM
Cn1ncc(-c2cc(Cl)c3c(=O)[nH]nc(CN)c3c2)c1-c1ccc2ccccc2c1C#N [Example 10-1, 2-(4-(4-(aminomethyl)-8-chloro-1-oxo-1,2-dihydrophthalazin-6-yl)-1-methyl-1H-pyrazol-5-yl)-1-naphthonitrile] | 15 nM | 41.7 nM | 1120 nM | 2.3 µM | 36 nM
Cn1ncc(-c2cc(F)c3c(=O)[nH]nc(CN)c3c2)c1-c1ccc2ccccc2c1C#N [Example 10-2, 2-(4-(4-(aminomethyl)-8-fluoro-1-oxo-1,2-dihydrophthalazin-6-yl)-1-methyl-1H-pyrazol-5-yl)-1-naphthonitrile] | 6 nM | 67.2 nM | 2480 nM | 3.38 µM | 112 nM
Cn1ncc(-c2cc(Cl)c3c(=O)[nH]nc(CN)c3c2)c1-c1cccc(Cl)c1C#N [Example 10-3, 2-(4-(4-(aminomethyl)-8-chloro-1-oxo-1,2-dihydrophthalazin-6-yl)-1-methyl-1H-pyrazol-5-yl)-6-chlorobenzonitrile] | 5 nM | 845 nM | 3820 nM | 8.48 µM | 240 nM
CCc1cccc(-c2c(-c3cc(Cl)c4c(=O)[nH]nc(CN)c4c3)cnn2C)c1C#N [Example 10-4, 2-(4-(4-(aminomethyl)-8-chloro-1-oxo-1,2-dihydrophthalazin-6-yl)-1-methyl-1H-pyrazol-5-yl)-6-ethylbenzonitrile] | 7 nM | 417 nM | 9220 nM | > 10 µM | 128 nM
CCOc1cccc(-c2c(-c3cc(Cl)c4c(=O)[nH]nc(CN)c4c3)cnn2C)c1C#N [Example 10-5, 2-(4-(4-(aminomethyl)-8-chloro-1-oxo-1,2-dihydrophthalazin-6-yl)-1-methyl-1H-pyrazol-5-yl)-6-ethoxybenzonitrile] | 30 nM | 1150 nM | > 10000 nM | > 10 µM | 250 nM
Cn1ncc(-c2cc(F)c3c(=O)[nH]nc(CN)c3c2)c1-c1cccc(Cl)c1C#N [Example 10-6, 2-(4-(4-(aminomethyl)-8-fluoro-1-oxo-1,2-dihydrophthalazin-6-yl)-1-methyl-1H-pyrazol-5-yl)-6-chlorobenzonitrile] | 219 nM | 6630 nM | > 10000 nM | > 10 µM | 4090 nM
